Laboratory results from patent US20130274294A1, “4-(Hetero)Aryl-Ethynyl-Octahydro-Indole-1-Esters” (priority 2010, published 2013).
≈ marks a conversion by molar mass, not a printed value.

How the values were obtained:
[1] = Solubility in Cl-free phosphate buffer (0.067 M), pH 6.8; assay type: physicochemical; settings: pH 6.8, aqueous buffer
Method: Solubility of compounds of the invention was determined in the following buffer: Cl-free phosphate buffer (0.067 M) is made from KH2PO4 solution and titrated to pH 6.8 with NaOH. The table below represents solubility values of compounds of the invention in the above buffer.

[2] = molecular target: T1, human mGluR5a receptors (Homo sapiens, UniProt P41594); assay: Inhibition of glutamate-induced elevation of intracellular calcium concentration in L(tk-) cells expressing human mGluR5a receptors; assay type: cell-based; settings: agonist glutamate
T1 construct: expressed in transfected cells; host or cells: L(tk-) cells (mouse fibroblast line)
Excerpt: This can be determined in vitro, for example, at recombinant human mGluR5, using different procedures like, for example, measurement of the inhibition of the agonist induced elevation of intracellular Ca^2+ concentration in accordance with L. P. Daggett et al., Neuropharm. Vol. 34, pages 871-886 (1995), P. J. Flor et al., J. Neurochem. Vol. 67, pages 58-63 (1996) or by determination to what extent the agonist induced elevation of the inositol phosphate turnover is inhibited as described by T. Knoepfel et al., Eur. J. Pharmacol. Vol. 288, pages 389-392 (1994), L. P. Daggett et al., Neuropharm. Vol. 67, pages 58-63 (1996) and references cited therein. Isolation and expression of human mGluR subtypes are described in U.S. Pat. No. 5,521,297.
Activity of compounds of the present invention was examined by determination to what extent the glutamate-induced elevation of the intracellular calcium concentration in L(tk-) cells expressing human mGluR5a receptors (see L. P. Daggett et al., Neuropharm. Vol. 34, pages 871-886, 1995) is inhibited by utilizing methods as described e.g. by L. P. Daggett et al., Neuropharm. Vol. 34, pages 871-886 (1995) and P. J. Flor et al., J. Neurochem. Vol. 67, pages 58-63 (1996).
The table below represents IC50 values of the inhibition of the glutamate-induced elevation of the intracellular calcium concentration.

T1 sequence (P41594 21-1180 isoform P41594-2 limits assumed): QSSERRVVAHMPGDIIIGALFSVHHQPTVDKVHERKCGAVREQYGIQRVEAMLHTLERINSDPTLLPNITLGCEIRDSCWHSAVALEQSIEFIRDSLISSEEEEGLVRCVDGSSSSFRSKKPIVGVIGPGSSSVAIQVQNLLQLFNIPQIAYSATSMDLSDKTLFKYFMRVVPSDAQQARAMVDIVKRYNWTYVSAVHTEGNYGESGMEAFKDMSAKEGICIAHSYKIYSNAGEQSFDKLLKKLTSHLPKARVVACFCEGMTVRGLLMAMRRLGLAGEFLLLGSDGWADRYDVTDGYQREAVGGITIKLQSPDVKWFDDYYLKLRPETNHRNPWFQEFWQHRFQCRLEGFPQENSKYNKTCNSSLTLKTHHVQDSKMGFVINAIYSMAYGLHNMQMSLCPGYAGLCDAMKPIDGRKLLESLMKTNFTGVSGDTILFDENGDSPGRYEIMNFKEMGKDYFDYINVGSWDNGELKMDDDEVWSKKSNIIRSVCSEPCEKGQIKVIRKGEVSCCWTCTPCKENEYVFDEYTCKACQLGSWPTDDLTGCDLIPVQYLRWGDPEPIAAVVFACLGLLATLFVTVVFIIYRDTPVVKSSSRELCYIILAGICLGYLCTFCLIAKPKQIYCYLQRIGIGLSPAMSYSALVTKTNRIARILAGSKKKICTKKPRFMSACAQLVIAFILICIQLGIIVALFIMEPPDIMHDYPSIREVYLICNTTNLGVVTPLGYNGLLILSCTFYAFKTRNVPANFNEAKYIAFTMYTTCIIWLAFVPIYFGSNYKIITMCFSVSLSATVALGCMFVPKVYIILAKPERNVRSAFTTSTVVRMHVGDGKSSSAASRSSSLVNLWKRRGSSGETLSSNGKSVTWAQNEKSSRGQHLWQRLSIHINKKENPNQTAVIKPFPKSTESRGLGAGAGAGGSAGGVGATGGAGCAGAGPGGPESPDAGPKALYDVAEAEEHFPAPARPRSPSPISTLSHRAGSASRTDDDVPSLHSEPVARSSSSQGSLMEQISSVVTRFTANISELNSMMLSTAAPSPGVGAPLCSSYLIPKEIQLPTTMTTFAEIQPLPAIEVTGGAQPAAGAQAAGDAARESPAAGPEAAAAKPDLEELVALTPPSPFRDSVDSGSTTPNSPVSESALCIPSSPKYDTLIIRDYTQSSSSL

Row | solubility [1] [µg/mL] | IC50 [2] [nM] | Structure (SMILES)
1 | 103 (≈ 309 µM) | 16 | COC(=O)N1CC[C@@H]2[C@H]1CCC[C@@]2(O)C#Cc1cccc(Cl)c1 [Example 1, (3aR,4S,7aR)-methyl 4-((3-chlorophenyl)ethynyl)-4-hydroxyoctahydro-1H-indole-1-carboxylate]
2 | > 300 | 1100 | COC(=O)N1CC[C@@H]2[C@H]1CCC[C@@]2(O)C#Cc1cncc(C)c1 [Example 2, (3aR,4S,7aR)-methyl 4-hydroxy-4-((5-methylpyridin-3-yl)ethynyl)octahydro-1H-indole-1-carboxylate]
3 | > 300 | 530 | COC(=O)N1CC[C@@H]2[C@H]1CCC[C@@]2(O)C#Cc1ccnc(C)c1 [Example 3, (3aR,4S,7aR)-methyl 4-hydroxy-4-((2-methylpyridin-4-yl)ethynyl)octahydro-1H-indole-1-carboxylate]
4 |  | 1430 | COC(=O)N1CC[C@@H]2[C@H]1CCC[C@@]2(O)C#Cc1cccc(C)n1 [Example 4, (3aR,4S,7aR)-methyl 4-hydroxy-4-((6-methylpyridin-2-yl)ethynyl)octahydro-1H-indole-1-carboxylate]
5 | 175 (≈ 523 µM) | 146 | COC(=O)N1CC[C@@H]2[C@H]1CCC[C@@]2(O)C#Cc1ccnc(Cl)c1 [Example 5, (3aR,4S,7aR)-methyl 4-((2-chloropyridin-4-yl)ethynyl)-4-hydroxyoctahydro-1H-indole-1-carboxylate]
6 | 153 (≈ 487 µM) | 740 | COC(=O)N1CC[C@@H]2[C@H]1CCC[C@@]2(O)C#Cc1cc(C)ccn1 [Example 6, (3aR,4S,7aR)-methyl 4-hydroxy-4-((4-methylpyridin-2-yl)ethynyl)octahydro-1H-indole-1-carboxylate]
7 | > 300 | 470 | COC(=O)N1CC[C@@H]2[C@H]1CCC[C@@]2(O)C#Cc1csc(C)n1 [Example 7, (3aR,4S,7aR)-methyl 4-hydroxy-4-((2-methylthiazol-4-yl)ethynyl)octahydro-1H-indole-1-carboxylate]
8 | > 300 | 330 | COC(=O)N1CC[C@@H]2[C@H]1CCC[C@@]2(N)C#Cc1cccc(C)c1 [Example 8, (3aR,4S,7aR)-methyl 4-amino-4-(m-tolylethynyl)octahydro-1H-indole-1-carboxylate]
9 | > 300 | 710 | CCOC(=O)N1CC[C@@H]2[C@H]1CCC[C@@]2(N)C#Cc1cccc(C)c1 [Example 9, (3aR,4S,7aR)-ethyl 4-amino-4-(m-tolylethynyl)octahydro-1H-indole-1-carboxylate]
